Active and inactive are the calls of the source. The rule behind the calls is not given here.
Experiments:
[1] = biological target: Stimulator of interferon genes protein (Homo sapiens) (UniProt Q86WV6); assay: (§1) Activation of STING-mediated immune response in human HCT-116 cells transfected with ISRE reporter assessed as increase in cGAMP-induced ISRE activation by measuring fold change at 100 uM preincubated with compound for 1 hrs followed by cGAMP addition and measured after 48 hrs by luciferase reporter gene assay; assay type: cell-based; settings: filed as activator, time 49.0 hrs
Stimulator of interferon genes protein (Homo sapiens), sequence (Q86WV6 whole entry): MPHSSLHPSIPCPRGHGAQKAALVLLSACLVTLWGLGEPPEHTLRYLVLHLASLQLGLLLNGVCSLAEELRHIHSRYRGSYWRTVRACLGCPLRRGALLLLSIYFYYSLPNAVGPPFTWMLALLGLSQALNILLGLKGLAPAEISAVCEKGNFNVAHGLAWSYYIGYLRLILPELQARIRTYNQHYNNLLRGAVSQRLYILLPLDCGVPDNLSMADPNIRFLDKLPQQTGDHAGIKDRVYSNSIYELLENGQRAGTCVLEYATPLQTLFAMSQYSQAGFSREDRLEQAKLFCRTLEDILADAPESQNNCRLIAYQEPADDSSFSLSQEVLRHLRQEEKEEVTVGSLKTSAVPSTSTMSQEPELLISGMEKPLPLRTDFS

[2] = biological target: T1, Ectonucleotide pyrophosphatase/phosphodiesterase family member 1 (Homo sapiens, UniProt P22413); assay: Inhibition of recombinant human ENPP1 using cGAMP as substrate assessed as inhibition of cGAMP hydrolysis preincubated for 5 to 10 mins followed by substrate addition and measured after 90 mins by AMP-Glo reagent based luminescence plate reader analysis
T1 sequence (P22413 whole entry): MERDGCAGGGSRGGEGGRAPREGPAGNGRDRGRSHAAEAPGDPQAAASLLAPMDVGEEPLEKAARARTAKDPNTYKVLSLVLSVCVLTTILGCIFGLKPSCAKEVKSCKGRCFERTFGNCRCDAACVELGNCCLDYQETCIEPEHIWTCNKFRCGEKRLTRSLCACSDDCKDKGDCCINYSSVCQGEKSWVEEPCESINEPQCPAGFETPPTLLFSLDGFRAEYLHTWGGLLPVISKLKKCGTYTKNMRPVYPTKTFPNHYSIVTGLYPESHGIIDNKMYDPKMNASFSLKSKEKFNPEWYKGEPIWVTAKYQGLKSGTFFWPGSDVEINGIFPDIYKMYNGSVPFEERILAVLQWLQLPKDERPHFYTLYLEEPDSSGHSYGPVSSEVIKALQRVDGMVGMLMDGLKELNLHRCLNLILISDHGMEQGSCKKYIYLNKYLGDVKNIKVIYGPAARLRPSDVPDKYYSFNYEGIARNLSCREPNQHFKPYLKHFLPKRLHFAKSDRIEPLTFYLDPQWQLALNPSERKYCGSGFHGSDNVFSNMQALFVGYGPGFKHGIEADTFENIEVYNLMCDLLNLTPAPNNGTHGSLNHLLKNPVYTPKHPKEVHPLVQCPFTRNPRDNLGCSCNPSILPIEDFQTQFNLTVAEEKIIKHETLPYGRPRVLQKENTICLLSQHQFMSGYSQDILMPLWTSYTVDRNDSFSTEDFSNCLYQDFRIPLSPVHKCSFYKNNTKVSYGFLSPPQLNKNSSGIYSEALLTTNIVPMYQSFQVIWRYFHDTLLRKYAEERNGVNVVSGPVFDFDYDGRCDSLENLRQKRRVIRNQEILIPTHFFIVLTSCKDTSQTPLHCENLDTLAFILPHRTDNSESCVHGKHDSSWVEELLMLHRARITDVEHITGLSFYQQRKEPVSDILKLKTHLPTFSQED

[3] = biological target: Stimulator of interferon genes protein (Homo sapiens) (UniProt Q86WV6); assay: Activation of STING-mediated immune response in human HCT-116 cells transfected with ISRE reporter assessed as increase in cGAMP-induced ISRE activation at 25 to 100 uM preincubated with compound for 1 hrs followed by cGAMP addition and measured after 48 hrs by luciferase reporter gene assay; assay type: cell-based; settings: filed as activator, dose 25-100 µM, time 49.0 hrs
[4] = biological target: Stimulator of interferon genes protein (Homo sapiens) (UniProt Q86WV6); assay: as §1, with “change at 25 to 100 uM” for “change at 100 uM”; assay type: cell-based; settings: filed as activator, dose 25-100 µM, time 49.0 hrs

SMILES	fold change (FC) [1]	IC50 [2] [nM]	Activity [3]	fold change (FC) [4]
NS(=O)(=O)Nc1ccc(Cc2n[nH]c(=O)c3ccccc23)cc1F		298	Active	
Cn1nc(-c2ccc3c(c2)CCN(S(N)(=O)=O)C3)c2ccccc2c1=O		2220		
Cn1nc(-c2ccc(CCS(N)(=O)=O)cc2)c2ccccc2c1=O		1810		
CN(c1ccc(Cc2n[nH]c(=O)c3ccccc23)cc1)S(N)(=O)=O		1140		
NS(=O)(=O)NCc1ccc(-c2n[nH]c(=O)c3ccccc23)cc1C(F)(F)F		377		
NS(=O)(=O)NCc1ccc(-c2nn(Cc3ccccc3)c(=O)c3ccccc23)cc1		1450		
COc1ccc2c(=O)n(C)nc(-c3ccc(CNS(N)(=O)=O)cc3)c2c1		1310		
NS(=O)(=O)NCc1ccc(-c2nn(-c3ccccc3)c(=O)c3ccccc23)cc1		1140		
NS(=O)(=O)Nc1ccc(Cc2n[nH]c(=O)c3ccccc23)c(C(F)(F)F)c1		1360		
Cn1nc(N2CCC(CNS(N)(=O)=O)CC2)c2ccccc2c1=O		2450		
NS(=O)(=O)Nc1ccc(Cc2n[nH]c(=O)c3ccccc23)cc1C(F)(F)F		2190		
COc1ccc2c(-c3ccc(CNS(N)(=O)=O)cc3)n[nH]c(=O)c2c1		590		
COc1cc2c(N3CCC(CNS(N)(=O)=O)CC3)nn(C)c(=O)c2cc1OC		454		
COc1cc2c(N3CCC(CNS(N)(=O)=O)CC3)n[nH]c(=O)c2cc1OC		395		
NS(=O)(=O)NCC1CCN(c2n[nH]c(=O)c3ccccc23)CC1		441		

Compounds with a lower IC50 [2], results first:

fold change (FC) [1]	IC50 [2] [nM]	Activity [3]	fold change (FC) [4]	SMILES
1.75	286			Cn1nc(-c2ccc(CNS(N)(=O)=O)cc2)c2ccccc2c1=O
	273	Active		NS(=O)(=O)Nc1ccc(Cc2n[nH]c(=O)c3ccccc23)c(F)c1
	247	Active		COc1cc2c(Cc3ccc(N(C)S(N)(=O)=O)cc3)nn(C)c(=O)c2cc1OC
	210		1.53	COc1cc2c(Cc3ccc4c(c3)CCN4S(N)(=O)=O)n[nH]c(=O)c2cc1OC
	207		3.23	COc1cc2c(Cc3ccc4c(c3)CCN4S(N)(=O)=O)nn(C)c(=O)c2cc1OC
	166	Active		COc1cc2c(Cc3ccc(N(C)S(N)(=O)=O)cc3)n[nH]c(=O)c2cc1OC
1.71	139			NS(=O)(=O)NCc1ccc(-c2n[nH]c(=O)c3ccccc23)cc1
	118	Active		COc1cc2c(Cc3ccc(NS(N)(=O)=O)cc3)nn(C)c(=O)c2cc1OC
	69		2.49	COc1cc2c(Cc3ccc(NS(N)(=O)=O)cc3)n[nH]c(=O)c2cc1OC
	39		1.85	NS(=O)(=O)Nc1ccc(Cc2n[nH]c(=O)c3ccccc23)cc1
1.07	37			COc1cc2c(-c3ccc(CNS(N)(=O)=O)cc3)n[nH]c(=O)c2cc1OC

Source: ChEMBL document CHEMBL5370672, “Discovery of Orally Bioavailable Phthalazinone Analogues as an ENPP1 Inhibitor for STING-Mediated Cancer Immunotherapy” (J Med Chem, 2023)
